Patent publication US5576305A, “Intercellular adhesion mediators” (Cytel Corporation, priority 1995, dated 1996)

Key:
rolling leukocytes = assay: leukocyte rolling (histamine-induced recruitment of rolling leukocytes); assay type: in vivo, rat; conditions: FIG. 15, in words
recombinant E-selectin = assay: inhibition of binding of HL-60 cells to recombinant E-selectin; assay type: cell-based; conditions: FIG. 13, concentration dependence, in words
selectin = assay: inhibitory effect of oligosaccharides on selectin-mediated adhesion; assay type: cell-based; conditions: in words

| Compound | recruitment of rolling leukocytes / leukocyte rolling (rolling leukocytes) | inhibition of binding of HL-60 cells to recombinant E-selectin (recombinant E-selectin) | inhibitory effect relative to the tetrasaccharide (selectin) |
| --- | --- | --- | --- |
| CCO[C@@H]1O[C@H](CO)[C@H](O)[C@H](O[C@@H]2O[C@H](CO)[C@@H](O[C@@H]3O[C@H](CO)[C@H](O)[C@H](O[C@]4(C(=O)O)C[C@H](O)[C@@H](NC(C)=O)[C@H]([C@H](O)[C@H](O)CO)O4)[C@H]3O)[C@H](O)[C@H]2NC(C)=O)[C@H]1O [SLN, reference compound] | had no effect | – | – |
| CCOC1OC(CO)C(O)C(OC2OC(CO)C(OC3OC(CO)C(O)C(OC4(C(=O)O)CC(O)C(NC(C)=O)C(C(O)C(O)CO)O4)C3O)C(OC3OC(C)C(O)C(O)C3O)C2NC(C)=O)C1O [Z, Ethyl (sodium (5-acetamido-3,5-dideoxy-α-D-glycero-D-galacto-2-nonulopyanosylonate))-(2-3)-O-(β-D-galactopyranosyl)-(1-4)-O-((α-L-fucopyranosyl)-(1-3))-O-(2-acetamido-2-deoxy-β-D-glucopyranosyl)-(1-3)-O-β-D-galactopyranoside] | inhibited leukocyte rolling | inhibition of binding of HL-60 cells to recombinant E-selectin in a concentration dependent manner | – |
| NeuAcα2,3Galβ1,4(Fucα1,3)GlcNAcβ1,3Galβ-- | – | – | substantially more inhibitory effect than the tetrasaccharide |
